Earlier results, collected in patent publication US6534094B2, “Manufacturing process of microcapsules for sustained release of water soluble peptides” (Eriochem S.A., priority 2000, dated 2003).

Conditions: superactive agonist of LH-RH; fold of the biological activity of LH-RH

In the case of `CCNC(=O)[C@@H]1CCCN1C(=O)[C@H](CCCNC(=N)N)NC(=O)[C@H](CC(C)C)NC(=O)[C@@H](CC(C)C)NC(=O)[C@H](Cc1ccc(O)cc1)NC(=O)[C@H](CO)NC(=O)[C@H](Cc1c[nH]c2ccccc12)NC(=O)[C@H](Cc1c[nH]cn1)NC(=O)[C@@H]1CCC(=O)N1` [leuprolide acetate], the “biological activity relative to LH-RH” value is listed as “approximately 10 times”.
